Results published in the NIST ThermoML archive (doi:10.1021/je049711t).
Numbers after ± are expanded uncertainties.

Experiment: refractive index (Na D-line) (dimensionless)
Settings: 293.15 K; 101.33 kPa; Liquid; Standard Abbe refractometry

Row | refractive index | Compound
1 | 1.4021 ± 0.0008 | CCCCCOC(C)=O [pentyl ethanoate]
2 | 1.3719 ± 0.0007 | CC(=O)O [acetic acid]
3 | 1.333 ± 0.0008 | O [water]
4 | 1.3772 ± 0.0008 | CC(=O)OC(C)C [1-methylethyl ethanoate]
